The text below walks through data of US8227506B2, “Benzamidine compound” (Ajinomoto., Inc., priority 2005, dated 2012).

One data set addresses FXa (Homo sapiens, UniProt P00742). The data set can be described thus: Determination of activated factor X activity-inhibitory activity (chromogenic substrate S-2222). Format: biochemical. The settings on record: negative logarithm of the concentration suppressing 50% of the reaction rate of the control, 0.015 U/ml FXa. As to the method:
Determination of Activated Factor X Activity-Inhibitory Activity
(§1) Using a 96 well plate (#3396, Costar), 0.015 U/ml FXa (10 μL) and a test compound (10 μL) were blended with 100 mM Tris-HCl buffer (130 μL) containing 0.02% Tween 20, 0.1% PEG6000 and 0.2 M NaCl for 10 minutes, and a substrate for color development (0.2 mM S-2222 50 μL) was added thereto. Using a Microplate reader Benchmark Plus (BIO-RAD), the reaction rate was measured from the time course changes at absorbance 405 nm. The reaction rate of the control was taken as 100% and the negative logarithm of the concentration capable of suppressing 50% of the reaction rate of the control was taken as the pIC50 value.

Data set [1] addresses activated factor IIa (thrombin) (Homo sapiens, UniProt P00734). The experiment in a line: Determination of activated factor II (FIIa, thrombin)-inhibitory activity (chromogenic substrate S-2238). Format: biochemical. The settings on record: negative logarithm of the concentration suppressing 50% of the reaction rate of the control, 0.125 U/ml thrombin. The procedure: Determination of Activated Factor II (FIIa, Thrombin)-Inhibitory Activity
as §1, with “0.125” for “0.015”, “activated factor IIa (thrombin)” for “FXa”, “(0.1” for “(0.2”, “S-2238” for “S-2222”

The subject of the next data set is human plasma. The experiment in a line: Determination of anticoagulant activity (aPTT measurement method). Particulars: negative logarithm of the concentration prolonging the aPTT of the control to two-fold. The procedure: Determination of Anticoagulant Activity
The aPTT measurement method using an automatic blood coagulation time measuring device, Sysmex CA-3000 (TOA Medical Electronics Co., Ltd.) was performed. A solution (5 μl) of the test compound was placed in a sample tube (SU-40, TOA Medical Electronics Co., Ltd.), human plasma (hemolyance coagulation control I, iatron Laboratory, 45 μl) was added and the mixture was incubated at 37° C. for 3 minutes. To the plasma solution were added dataphay•APTT (rabbit brain-derived cephalin, DADE Behring Co., Ltd., 50 μl) and 0.02 M calcium chloride (50 μl), and the time up to the coagulation of plasma was automatically measured. The anticoagulation activity is shown as the negative logarithm of the concentration prolonging the aPTT of the control to two-fold (paPTT2).

A short description of data set [2]: Evaluation of stability in plasma. It is filed as in vitro ADME. The settings on record: disappearance half-life in human plasma, 37° C., final drug concentration 10 μM, HPLC. As to the method:
Evaluation of Stability in Plasma
A […] solution (5 μl) of the test compound was added to human plasma (495 μl) (final drug concentration, 10 μM), and the mixture was incubated at 37° C. Samples (each 50 μl) were taken at 0 minutes, 3 minutes, 10 minutes, and 20 minutes after addition of the drug solution, diluted with distilled water (50 μl), and the reaction was quenched by adding 100% acetonitrile (300 μl) and blending them. After deproteinization by centrifugation at 15000 rpm for 5 minutes, the mixture was concentrated to dryness by a centrifugal evaporator. The sample was dissolved in 120 μl of 0.1% aqueous TFA, the peak area or height of the test compound was calculated by HPLC, and the disappearance half-life was determined.

Another data set relates to dog dialysis model. The experiment in a line: Evaluation of dog dialysis model. Format: in vivo, dog (Beagles). As to the method:
Evaluation of Dog Dialysis Model
Beagles (♂, 11 kg-15 kg, Nosan Corp., Japan) were anesthetized with pentobarbital (30 mg/kg, Tokyo Chemical Industry Co., Ltd.) by intravenous administration from the cephalic vein of the forefoot. A tracheostomy tube was inserted and artificial breathing was started. Placing needles [14G (serflow placing needle, Termo Corp.), 16G (happycath, Medikit Co., Led), 18G (serflow placing needle, Termo Corp.)] were punctured into the left femoral vein, right femoral artery, and right cephalic vein of the forefoot, respectively, and an outer shunt (Senko Medical Instrument Mfg. CO., Ltd.) filled with saline was set to the femoral vein and artery. For hemodialysis, a hemodialysis device for one person (DBG-01, Nikkiso Co., Ltd.), a hollow fiber dialyzer (FB-50, triacetate (CTA) film, Nipro Corp.) and sodium bicarbonate dialysate (AK-sorita•DL, Shimizu Corp.) were used.
The experiment was performed under the conditions of blood flow 80 ml/minute, dialysate flow 300 ml/minute, water removal amount 0 ml/minute. During dialysis, pentobarbital (12 mg/kg/hour) was continuously administered from the cephalic vein of the forefoot to maintain anesthesia. The control and test compounds were continuously administered into the arterial blood circuit (B) at 5 ml/hour. […]

Sequence of FXa (P00742 235-488 limits assumed): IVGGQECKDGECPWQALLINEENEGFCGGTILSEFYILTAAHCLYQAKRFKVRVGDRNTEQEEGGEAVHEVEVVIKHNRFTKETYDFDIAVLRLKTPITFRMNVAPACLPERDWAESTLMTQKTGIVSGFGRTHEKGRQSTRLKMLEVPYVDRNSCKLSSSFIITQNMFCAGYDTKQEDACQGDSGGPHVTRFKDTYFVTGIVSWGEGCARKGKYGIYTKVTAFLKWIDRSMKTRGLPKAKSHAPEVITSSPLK
Sequence of FXa (P00742 41-179 partner limits assumed): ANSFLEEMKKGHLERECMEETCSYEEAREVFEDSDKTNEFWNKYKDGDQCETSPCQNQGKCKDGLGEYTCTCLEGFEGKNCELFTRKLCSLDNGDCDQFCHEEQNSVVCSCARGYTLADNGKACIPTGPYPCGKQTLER

As to `N=C(N)c1ccc(O)c(OCCOC(=O)c2ccc(C(=N)N3CCCC3)cc2)c1` [Ex. 6, 2-{5-amidino-2-hydroxyphenoxy}ethyl 4-[imino(pyrrolidin-1-yl)methyl]benzoate ditrifluoroacetate], the half-inhibitory concentration (IC50) against FXa is 3.16 nM; in data set [1], 79400 nM. In addition, the paPTT2 with human plasma is given as 6. Moreover, the half-life at 10 μM in data set [2] came to 1.6 min.
As to `N#CCOc1ccc(C(=N)N)cc1OCCOC(=O)c1ccc(C(=N)N2CCCC2)cc1` [Ex. 20, 2-[5-amidino-2-(cyanomethoxy)phenoxy]ethyl 4-[imino(pyrrolidin-1-yl)methyl]benzoate ditrifluoroacetate], the concentration for half-maximal inhibition (IC50) was 12.6 nM on FXa and 6310 nM in data set [1]. The same molecule had a half-life at 10 μM in data set [2] of 2.1 min. Besides, the bleeding time entry with dog dialysis model (Template method, 2 hour after the start of the administration, versus control (FIG. 2)) was “of the same level as the control”. The same molecule displayed a dialysis time with dog dialysis model (up to arterial circuit pressure 300 mmHg or 4 hours after the start of the dialysis (FIG. 1)) of 4 h.
For the molecule `N=C(N)c1cccc(OCCOC(=O)c2ccc(C(=N)N3CCCC3)nc2)c1` [Ex. 37, 2-(3-amidinophenoxy)ethyl 6-[imino(pyrrolidin-1-yl)methyl]nicotinate tritrifluoroacetate], the half-inhibitory concentration (IC50) at FXa is 200 nM; in data set [1], greater than 100000 nM. Besides, the paPTT2 with human plasma is listed as 5.2.
Turning to `CC(C)COc1ccc(C(=N)N)cc1OCCOC(=O)c1ccc(C(=N)N2CCCC2)cc1` [Ex. 24, 2-{5-amidino-2-isobutoxyphenoxy}ethyl 4-[imino(pyrrolidin-1-yl)methyl]benzoate ditrifluoroacetate], the concentration for half-maximal inhibition (IC50) on FXa was 39.8 nM; in data set [1], 12600 nM. This molecule returned a half-life at 10 μM in data set [2] of 0.7 min.
For the molecule `CC(=N)N1CCC(Oc2ccc(C(=O)OCCOc3cccc(C(=N)N)c3)cc2)CC1` [Ex. 16, 2-{3-amidinophenoxy}ethyl 4-[(1-(1-iminoethyl)piperidin-4-yl)oxy]benzoate ditrifluoroacetate], the IC50 is 63.1 nM at FXa and greater than 100000 nM in data set [1]. Further, the paPTT2 in the data set with human plasma turned out to be 5.4. In data set [2], the half-life at 10 μM is 1.7 min.
`CC(=O)Oc1ccc(C(=N)N)cc1OCCOC(=O)c1ccc(C(=N)N2CCCC2)cc1` [Ex. 28, 2-{2-(acetoxy)-5-amidinophenoxy}ethyl 4-[imino(pyrrolidin-1-yl)methyl]benzoate ditrifluoroacetate]: the IC50 was 3.98 nM at FXa and 1580 nM in data set [1]. Further, in data set [2], the half-life at 10 μM is 3.5 min.
`N=C(N)c1ccc(OCCO)c(OCCOC(=O)c2ccc(C(=N)N3CCCC3)cc2)c1` [Ex. 13, 2-[5-amidino-2-(2-hydroxyethoxy)phenoxy]ethyl 4-[imino(pyrrolidin-1-yl)methyl]benzoate ditrifluoroacetate]: the results for the IC50 (on FXa; in data set [1]) were 15.8 nM and 63100 nM, respectively. In the data set with human plasma, this molecule came in with a paPTT2 of 6.4. In data set [2], the half-life at 10 μM was determined as 2.7 min.
In the same order, the values of `COc1ccc(C(=N)N)cc1OCCOC(=O)c1ccc(C(=N)N2CCCC2)cc1` [Ex. 18, 2-{5-amidino-2-methoxyphenoxy}ethyl 4-[imino(pyrrolidin-1-yl)methyl]benzoate ditrifluoroacetate] are 251 nM, greater than 100000 nM, 5.2 and 1.1 min.
In the case of `N=C(N)c1cccc(OCCOC(=O)c2ccc(OC3CCN(C(=N)N)CC3)cc2)c1` [Ex. 17, 2-{3-amidinophenoxy}ethyl 4-({1-amidinopiperidin-4-yl}oxy)benzoate ditrifluoroacetate], the IC50 at FXa is 63.1 nM; in data set [1], greater than 100000 nM. In data set [2], this molecule showed a half-life at 10 μM of 5.6 min.

The IC50 is the concentration that inhibits the measured activity by half. Low values mean greater potency, high ones weaker potency. Usually half-life stands for how long it takes for the measured level to halve. A higher half-life goes with slow loss.
